Measurements published in ChEMBL document CHEMBL4813909, “Heterocyclic Diamidine DNA Ligands as HOXA9 Transcription Factor Inhibitors: Design, Molecular Evaluation, and Cellular Consequences in a HOXA9-Dependant Leukemia Cell Model” (J Med Chem, 2019).
Activity calls are given as the source filed them. The calls are words filed in the database; no cut-off is given here.

What was measured:
[1] = Induction of cell cycle arrest in mouse MigA9 cells expressing mouse Hoxa9 assessed as accumulation at G2/M phase at 0.5 uM incubated for 48 hrs by EdU/propidium iodide staining based flow cytometry (reference value: 4.55 +/- 0.16%); format: functional
[2] = Induction of cell cycle arrest in mouse MigA9 cells expressing mouse Hoxa9 assessed as accumulation at S phase at 0.5 uM incubated for 48 hrs by EdU/propidium iodide staining based flow cytometry (reference value: 46.68 +/- 0.21%); format: functional
[3] = Induction of cell cycle arrest in mouse MigA9 cells harboring mouse Hoxa9 gene assessed as accumulation at sub-G1 phase at 0.5 uM incubated for 48 hrs by propidium iodide staining based flow cytometry (reference value: 0.76 +/- 0.1%); format: functional
[4] = Drug localization in nucleus of mouse MigA9 cells at 20 uM incubated for 2 hrs by TO-PRO-3/propidium iodide staining based by fluorescence microscopy; format: ADME, subcellular; settings: miga9, 2 h
[5] = Induction of cell death in mouse MigA9 cells harboring mouse Hoxa9 gene assessed as propidium iodide-positive cells at 1 uM incubated for 24 hrs by propidium iodide staining based flow cytometry relative to control; format: functional
[6] = test system: HOXA9 DNA binding site; settings: dose 0.5-1 µM
[7] = Induction of cell death in mouse MigA9 cells harboring mouse Hoxa9 gene assessed as propidium iodide-positive cells at 1 uM incubated for 48 hrs by propidium iodide staining based flow cytometry (reference value: 8.75 +/- 0.2%); format: functional
[8] = Induction of cell death in mouse MigA9 cells harboring mouse Hoxa9 gene assessed as propidium iodide-positive cells at 0.5 uM incubated for 48 hrs by propidium iodide staining based flow cytometry (reference value: 8.75 +/- 0.2%); format: functional
[9] = Induction of cell death in mouse MigA9 cells harboring mouse Hoxa9 gene assessed as propidium iodide-positive cells at 0.5 uM incubated for 24 hrs by propidium iodide staining based flow cytometry (reference value: 9.06 +/- 0.53%); format: functional
[10] = Induction of cell cycle arrest in mouse MigA9 cells expressing mouse Hoxa9 assessed as accumulation at G0/G1 phase at 0.5 uM incubated for 48 hrs by EdU/propidium iodide staining based flow cytometry (reference value: 48.77 +/- 0.19%); format: functional
[11] = Drug localization in nucleus of human HT-29 cells at 5 uM incubated for 16 hrs by DiOC6/propidium iodide staining based by fluorescence microscopy; format: ADME, subcellular; settings: ht-29, 16 h
[12] = Induction of cell cycle arrest in mouse MigA9 cells expressing mouse Hoxa9 assessed as accumulation at G2/M phase at 5 uM incubated for 48 hrs by EdU/propidium iodide staining based flow cytometry (reference value: 4.55 +/- 0.16%); format: functional
[13] = Induction of cell cycle arrest in mouse MigA9 cells expressing mouse Hoxa9 assessed as accumulation at S phase at 5 uM incubated for 48 hrs by EdU/propidium iodide staining based flow cytometry (reference value: 46.68 +/- 0.21%); format: functional
[14] = Induction of cell death in mouse MigA9 cells harboring mouse Hoxa9 gene assessed as propidium iodide-positive cells at 5 uM incubated for 48 hrs by propidium iodide staining based flow cytometry (reference value: 8.75 +/- 0.2%); format: functional
[15] = test system: HOXA9 DNA binding site; settings: dose 1.0 µM
[16] = Induction of cell cycle arrest in mouse MigA9 cells harboring mouse Hoxa9 gene assessed as accumulation at sub-G1 phase at 5 uM incubated for 48 hrs by propidium iodide staining based flow cytometry (reference value: 0.76 +/- 0.1%); format: functional
[17] = Induction of cell death in mouse MigA9 cells harboring mouse Hoxa9 gene assessed as propidium iodide-positive cells at 5 uM incubated for 24 hrs by propidium iodide staining based flow cytometry (reference value: 9.06 +/- 0.53%); format: functional
[18] = Induction of cell cycle arrest in mouse MigA9 cells expressing mouse Hoxa9 assessed as accumulation at G0/G1 phase at 5 uM incubated for 48 hrs by EdU/propidium iodide staining based flow cytometry (reference value: 48.77 +/- 0.19%); format: functional
[19] = test system: HOXA9 DNA binding site; experiment: Inhibition of HOXA9 (unknown origin) expressed in reticulocyte lysate system binding to 32P-radiolabeled DNA Hoxa9-binding site (strand a-CTGCGATGATTTACGACCGC /strand b-GCGGTCGTAAATCATCGCAG) (unknown origin) assessed as HOXA9/DNA inhibition at 2.5 to 20 uM incubated for 20 mins by electrophoretic mobility shift assay relative to control; format: subcellular; settings: dose 2.5-20 µM
[20] = test system: HOXA9 DNA binding site; settings: dose 0.5 µM
[21] = Induction of cell death in mouse MigA9 cells harboring mouse Hoxa9 gene assessed as propidium iodide-positive cells at 15 uM incubated for 24 hrs by propidium iodide staining based flow cytometry (reference value: 9.06 +/- 0.53%); format: functional
[22] = Induction of cell cycle arrest in mouse MigA9 cells harboring mouse Hoxa9 gene assessed as accumulation at sub-G1 phase at 20 uM incubated for 48 hrs by propidium iodide staining based flow cytometry (reference value: 0.76 +/- 0.1%); format: functional
[23] = Induction of cell death in mouse MigA9 cells harboring mouse Hoxa9 gene assessed as propidium iodide-positive cells at 20 uM incubated for 24 hrs by propidium iodide staining based flow cytometry (reference value: 9.06 +/- 0.53%); format: functional
[24] = Cytotoxicity against mouse MigA9 cells harboring mouse Hoxa9 gene incubated for 72 hrs by MTS assay; format: functional, cell-based; settings: MigA9, 72 h

N=C(Nc1ccc(-c2ccc(-c3ccc(NC(=N)c4ccccc4)cc3)[nH]2)cc1)c1ccccc1
Activity [1]: 7.32% | Activity [2]: 38.84% | Activity [3]: 2.47% | Drug transport [4]: Active | Activity [5]: 68.8% | ΔTm [6]: 8 °C | Activity [7]: 99.33% | Activity [8]: 18.33% | Activity [9]: 12.9% | Activity [10]: 53.83%

N=C(N)c1ccc(-c2ccc(-c3nc4ccc(C(=N)N)cc4[nH]3)o2)nc1
Drug transport [4]: Active | Drug transport [11]: Active

N=C(N)c1ccc(-c2ccc(-c3cc4ccc(C(=N)N)cc4[nH]3)s2)cc1
Activity [12]: 12.93% | Activity [13]: 9.15% | Drug transport [4]: Active | Activity [14]: 77.87% | ΔTm [15]: > 10 °C | Activity [16]: 33.64% | Activity [17]: 7.42% | Activity [18]: 77.92%

N=C(N)c1ccc(-c2ccc(-c3nc4cc(C(=N)N)ccc4[nH]3)o2)cc1
Drug transport [11]: Active | inhibition [19]: inactive

N=C(N)c1ccc(-c2ccc(-c3cc4ccc(C(=N)N)cc4[nH]3)o2)cc1
ΔTm [20]: 7 °C | Drug transport [4]: Active | Activity ([21]; dose 15 µM, time 24 hrs): 11.76% | ΔTm [15]: > 10 °C | inhibition [19]: Active

Cc1cc(C(=N)N)ccc1-c1ccc(-c2nc3ccc(C(=N)N)cc3[nH]2)o1
Drug transport [11]: Active

N=C(N)c1ccc(-c2ccc(-c3cc4cc(C(=N)N)ccc4[nH]3)o2)nc1
Drug transport [4]: Active

N=C(N)c1ccc(-c2ccc(-c3ccc4ccc(C(=N)N)cc4c3)cc2)cc1
ΔTm [6]: 8 °C

Cn1c(-c2ccc(-c3ccc(-c4nc5cc(C(=N)N)ccc5n4C)s3)cc2)nc2cc(C(=N)N)ccc21
Drug transport [4]: Active | inhibition [19]: inactive

N=C(N)c1ccc(-n2ccc(-c3nc4ccc(C(=N)N)cc4[nH]3)n2)cc1
Activity [22]: 0.67% | Activity ([21]; miga9, at 15 µM): 8.64% | Activity ([23]; miga9, at 20 µM): 10.43% | IC50 [24]: > 50 µM

COc1cc(C(=N)N)ccc1-c1ccc(-c2cc3ccc(C(=N)N)cc3[nH]2)o1
Drug transport [4]: Active

Cn1c(-c2ccc(-c3ccc(C(=N)N)cc3)o2)nc2cc(C(=N)N)ccc21
Drug transport [4]: Active | inhibition [19]: inactive

CC(C)n1c(-c2ccc(-c3ccc(C(=N)N)cc3)s2)nc2cc(-c3ccc(C(=N)N)cc3)ccc21
Drug transport [4]: Active

Cn1c(-c2ccc(-c3ccc(C(=N)N)cc3)s2)nc2cc(C(=N)N)ccc21
Drug transport [4]: Active | inhibition [19]: inactive

N=C(N)c1ccc(-c2cccc(-c3nc4cc(C(=N)N)ccc4[nH]3)c2)cc1
Drug transport [4]: Not Active

N=C(N)c1ccc(-c2cnc(-c3ccc(C(=N)N)cc3)s2)cc1
Activity [22]: 1.71% | Drug transport [4]: Active | Activity ([21]; dose 15 µM, time 24 hrs): 5.69% | Activity ([23]; dose 20 µM, time 24 hrs): 5.91% | inhibition [19]: Active

N=C(N)c1ccc2nc(-c3ccc(-c4ccc(C(=N)N)nc4)o3)[nH]c2c1
Drug transport [11]: Active | inhibition [19]: inactive

N=C(N)c1ccc(-c2ccc(-c3cc4ccc(C(=N)N)cc4[nH]3)s2)nc1
ΔTm [20]: 7 °C | Activity [12]: 9.5% | Activity [13]: 22.55% | Activity [14]: 39.4% | ΔTm [15]: > 10 °C | Activity [16]: 4.48% | Activity [17]: 6.21% | Activity [18]: 67.95%

N=C(N)c1ccc(-c2cnc(-c3ccc(C(=N)N)cc3)o2)cc1
inhibition [19]: inactive

N=C(N)c1ccc(-c2ccc(-c3ccc(C(=N)N)cc3)o2)cc1 [FURAMIDINE]
Drug transport [4]: Active

N=C(N)c1ccc(-c2ccc(-c3nc4ccc(C(=N)N)cc4[nH]3)o2)c(O)c1
Drug transport [11]: Active
